Laboratory results: PubChem BioAssay AID256 (DTP/NCI, 2004)
“And” between values parts separate entries of the source, which are not always exact repeats. Identical values can stand only once. Inconclusive results and toxic doses are left out. The calls were made as follows: active = survival T/C of 150% or more; inactive = T/C below 125% in these data.

System: CD2F1 mice, L1210 leukemia ip, survival T/C
Assay: NCI In Vivo Anticancer Drug Screen. Data for tumor model L1210 Leukemia (intraperitoneal) in CD2F1 (CDF1) mice
Settings: higher = longer survival
Method in brief: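 Vehicle-treated tumor-bearing mice served as controls (C) for compound-treated mice (T). Reported figure is T divided by C.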

[1] = endpoint: mean survival time, dose: 100.0 mg/kg/injection, schedule: Q01DX009 (ip), vehicle: saline with Tween-80
[2] = endpoint: mean survival time, dose: 200.0 mg/kg/injection, schedule: Q01DX009 (ip), vehicle: saline with Tween-80
[3] = endpoint: mean survival time, dose: 400.0 mg/kg/injection, schedule: Q01DX009 (ip), vehicle: saline with Tween-80
[4] = endpoint: mean survival time, dose: 25.0 mg/kg/injection, schedule: Q01DX009 (ip), vehicle: water
[5] = endpoint: mean survival time, dose: 50.0 mg/kg/injection, schedule: Q01DX009 (ip), vehicle: water
[6] = endpoint: mean survival time, dose: 100.0 mg/kg/injection, schedule: Q01DX009 (ip), vehicle: water
[7] = endpoint: mean survival time, dose: 100.0 mg/kg/injection, schedule: Q04DX002 (ip), vehicle: saline with Tween-80
[8] = endpoint: mean survival time, dose: 100.0 mg/kg/injection, schedule: Q04DX003 (ip), vehicle: Klucel (hydroxypropylcellulose) (HPC)
[9] = endpoint: mean survival time, dose: 200.0 mg/kg/injection, schedule: Q04DX003 (ip), vehicle: Klucel (hydroxypropylcellulose) (HPC)
[10] = endpoint: mean survival time, dose: 400.0 mg/kg/injection, schedule: Q04DX003 (ip), vehicle: Klucel (hydroxypropylcellulose) (HPC)

Measured: T/C

CCOC(=O)CC(=O)c1ccccc1
inactive: [1] 96 % of control | [2] 102 % of control | [3] 89 % of control

O=S(=O)(O)C1CCC[N-]C1.O=S(=O)(O)C1CCC[N-]C1.[Cl][Pt+2]([Cl])([Cl])[Cl] (configuration not stated)
inactive: endpoint: mean survival time, dose: 12.5 mg/kg/injection, schedule: Q01DX009 (ip), vehicle: water 102 % of control | [4] 102 % of control | [5] 105 % of control | [6] 110 % of control

O=C(O)C1C2CCC(CC2)C1C(=O)O (configuration not stated)
inactive: [7] 93 % of control | endpoint: mean survival time, dose: 200.0 mg/kg/injection, schedule: Q04DX002 (ip), vehicle: saline with Tween-80 97 % of control | endpoint: mean survival time, dose: 400.0 mg/kg/injection, schedule: Q04DX002 (ip), vehicle: saline with Tween-80 101 % of control

C=CC(=O)Nc1ccccc1
inactive: endpoint: mean survival time, dose: 50.0 mg/kg/injection, schedule: Q04DX002 (ip), vehicle: Klucel (hydroxypropylcellulose) (HPC) 94 % of control | endpoint: mean survival time, dose: 100.0 mg/kg/injection, schedule: Q04DX002 (ip), vehicle: Klucel (hydroxypropylcellulose) (HPC) 94 % of control | endpoint: mean survival time, dose: 100.0 mg/kg/injection, schedule: Q04DX003 (ip), vehicle: saline with Tween-80 96 % of control | endpoint: mean survival time, dose: 200.0 mg/kg/injection, schedule: Q04DX002 (ip), vehicle: Klucel (hydroxypropylcellulose) (HPC) 97 % of control | endpoint: mean survival time, dose: 200.0 mg/kg/injection, schedule: Q04DX003 (ip), vehicle: saline with Tween-80 96 % of control | endpoint: mean survival time, dose: 400.0 mg/kg/injection, schedule: Q04DX003 (ip), vehicle: saline with Tween-80 97 % of control

O=C(O)CN(CCO)CCO
inactive: endpoint: mean survival time, dose: 100.0 mg/kg/injection, schedule: Q04DX003 (ip), vehicle: saline 100 % of control | endpoint: mean survival time, dose: 200.0 mg/kg/injection, schedule: Q04DX003 (ip), vehicle: saline 102 % of control | endpoint: mean survival time, dose: 400.0 mg/kg/injection, schedule: Q04DX003 (ip), vehicle: saline 102 % of control

OC(CI)C1OCOC2COCOC21 (configuration not stated)
inactive: [8] 102 % of control | [9] 94 % of control | [10] 97 % of control

N#Cc1cnoc1N
inactive: [1] 112 % of control | [2] 114 % of control | [3] 109 % of control

O=C(Nc1cccc(O)c1)C(Cl)=C(Cl)Cl
inactive: endpoint: median survival time, dose: 1.12 mg/kg/injection, schedule: Q01DX005 (ip), vehicle: DMSO 100 % of control | endpoint: median survival time, dose: 1.19 mg/kg/injection, schedule: Q01DX005 (ip), vehicle: DMSO 101 % of control | endpoint: median survival time, dose: 1.87 mg/kg/injection, schedule: Q01DX005 (ip), vehicle: DMSO 100 % of control and 102 % of control | endpoint: median survival time, dose: 3.12 mg/kg/injection, schedule: Q01DX005 (ip), vehicle: DMSO 113 % of control and 98 % of control | endpoint: median survival time, dose: 5.19 mg/kg/injection, schedule: Q01DX005 (ip), vehicle: DMSO 104 % of control | endpoint: median survival time, dose: 5.2 mg/kg/injection, schedule: Q01DX005 (ip), vehicle: DMSO 108 % of control | endpoint: median survival time, dose: 6.25 mg/kg/injection, schedule: Q01DX005 (ip), vehicle: other 120 % of control | endpoint: median survival time, dose: 8.66 mg/kg/injection, schedule: Q01DX005 (ip), vehicle: DMSO 102 % of control | endpoint: median survival time, dose: 8.67 mg/kg/injection, schedule: Q01DX005 (ip), vehicle: DMSO 114 % of control | endpoint: median survival time, dose: 12.5 mg/kg/injection, schedule: Q01DX005 (ip), vehicle: other 118 % of control | endpoint: median survival time, dose: 25.0 mg/kg/injection, schedule: Q01DX005 (ip), vehicle: other 93 % of control

CCOC(=O)CCN(C(=O)OCc1ccccc1)N(C)C(=O)OCc1ccccc1
inactive: endpoint: mean survival time, dose: 25.0 mg/kg/injection, schedule: Q04DX003 (ip), vehicle: Klucel (hydroxypropylcellulose) (HPC) 91 % of control | endpoint: mean survival time, dose: 50.0 mg/kg/injection, schedule: Q04DX003 (ip), vehicle: Klucel (hydroxypropylcellulose) (HPC) 94 % of control | [8] 89 % of control | [9] 89 % of control | [10] 100 % of control

NNc1ccccc1F
inactive: endpoint: mean survival time, dose: 25.0 mg/kg/injection, schedule: Q04DX002 (ip), vehicle: saline with Tween-80 97 % of control | endpoint: mean survival time, dose: 50.0 mg/kg/injection, schedule: Q04DX002 (ip), vehicle: saline with Tween-80 90 % of control | [7] 93 % of control | endpoint: mean survival time, dose: 100.0 mg/kg/injection, schedule: Q04DX003 (ip), vehicle: saline sonified 87 % of control

O=C(OCC1CC=CC1)C1CC=CC1
inactive: endpoint: mean survival time, dose: 12.5 mg/kg/injection, schedule: Q01DX009 (ip), vehicle: saline with Tween-80 104 % of control | endpoint: mean survival time, dose: 25.0 mg/kg/injection, schedule: Q01DX009 (ip), vehicle: saline with Tween-80 95 % of control | endpoint: mean survival time, dose: 50.0 mg/kg/injection, schedule: Q01DX009 (ip), vehicle: saline with Tween-80 98 % of control

CSCCC(NC(C)=O)C(=O)O.CSCCC(NC(C)=O)C(=O)O.[NH-]C1CCCCC1[NH-].[Pt+2] (configuration not stated)
inactive: endpoint: median survival time, dose: 3.12 mg/kg/injection, schedule: Q04DX003 (ip), vehicle: saline 100 % of control | endpoint: median survival time, dose: 6.25 mg/kg/injection, schedule: Q04DX003 (ip), vehicle: saline 100 % of control | endpoint: median survival time, dose: 12.5 mg/kg/injection, schedule: Q04DX003 (ip), vehicle: saline 97 % of control | endpoint: median survival time, dose: 25.0 mg/kg/injection, schedule: Q04DX003 (ip), vehicle: saline 107 % of control | endpoint: median survival time, dose: 50.0 mg/kg/injection, schedule: Q04DX003 (ip), vehicle: saline 93 % of control | endpoint: median survival time, dose: 100.0 mg/kg/injection, schedule: Q04DX003 (ip), vehicle: saline 98 % of control | endpoint: median survival time, dose: 200.0 mg/kg/injection, schedule: Q04DX003 (ip), vehicle: saline 97 % of control

COc1ccc(COC(=O)Nc2cccc3ccccc23)cc1
inactive: endpoint: mean survival time, dose: 75.0 mg/kg/injection, schedule: Q04DX002 (ip), vehicle: saline with Tween-80 104 % of control | endpoint: mean survival time, dose: 150.0 mg/kg/injection, schedule: Q04DX002 (ip), vehicle: saline with Tween-80 104 % of control | endpoint: mean survival time, dose: 300.0 mg/kg/injection, schedule: Q04DX002 (ip), vehicle: saline with Tween-80 100 % of control

Cc1cc(NCCN(C(C)C)C(C)C)nc(/N=C(\N)Nc2ccc(Cl)c(C(F)(F)F)c2)n1
inactive: endpoint: mean survival time, dose: 1.25 mg/kg/injection, schedule: Q01DX009 (ip), vehicle: Klucel (hydroxypropylcellulose) (HPC) 98 % of control | endpoint: mean survival time, dose: 2.5 mg/kg/injection, schedule: Q01DX009 (ip), vehicle: Klucel (hydroxypropylcellulose) (HPC) 103 % of control | endpoint: mean survival time, dose: 5.0 mg/kg/injection, schedule: Q01DX009 (ip), vehicle: Klucel (hydroxypropylcellulose) (HPC) 105 % of control | endpoint: mean survival time, dose: 10.0 mg/kg/injection, schedule: Q01DX009 (ip), vehicle: Klucel (hydroxypropylcellulose) (HPC) 101 % of control | endpoint: mean survival time, dose: 20.0 mg/kg/injection, schedule: Q01DX009 (ip), vehicle: Klucel (hydroxypropylcellulose) (HPC) 100 % of control | endpoint: mean survival time, dose: 40.0 mg/kg/injection, schedule: Q01DX009 (ip), vehicle: Klucel (hydroxypropylcellulose) (HPC) 88 % of control

Nc1nc(=S)c2ncn(C3CC(O)C(CO)C3)c2[nH]1 (configuration not stated)
inactive: endpoint: mean survival time, dose: 50.0 mg/kg/injection, schedule: Q01DX009 (ip), vehicle: Klucel (hydroxypropylcellulose) (HPC) 94 % of control | endpoint: mean survival time, dose: 100.0 mg/kg/injection, schedule: Q01DX009 (ip), vehicle: Klucel (hydroxypropylcellulose) (HPC) 91 % of control | endpoint: mean survival time, dose: 200.0 mg/kg/injection, schedule: Q01DX009 (ip), vehicle: Klucel (hydroxypropylcellulose) (HPC) 108 % of control

Nc1cc(=S)c2nnn(C3OC(CO)C(O)C3O)c2[nH]1 (configuration not stated)
inactive: [4] 100 % of control | [5] 104 % of control | [6] 93 % of control | endpoint: mean survival time, dose: 200.0 mg/kg/injection, schedule: Q01DX009 (ip), vehicle: water 86 % of control | endpoint: mean survival time, dose: 400.0 mg/kg/injection, schedule: Q01DX009 (ip), vehicle: water 89 % of control
